The values that follow come from the SangsterLogP compilation.

Molecules are shown by their SMILES.

A short description of this data set: from Draber, W.; Büchel, H.; Dickore, K.; Trebst, A.; Pistorius, E. (1969). Structure-activity correlation of 1,2,4-triazinones, a new group of photosynthesis inhibitors. In: Progress in Photosynthesis …. The conditions noted are these: pH 7.0.

In general, logD refers to the decadic logarithm of the distribution of all forms, ionised or not, between an organic phase and buffer at a given pH. A lower logD goes with lower lipophilicity. With `CCCSc1nnc(C(C)C)c(=O)n1N`, the logD worked out at 2.12.

The compound `CCCCNc1nnc(C(C)C)c(=O)n1N` displayed a logD of 1.78.

As to `CC(C)Sc1nnc(C(C)C)c(=O)n1N`, the logD is 2.06.

`CC(C)c1nnc(N2CCOCC2)n(N)c1=O` returned a logD of 0.49.

For the compound `CNc1nnc(C(C)C)c(=O)n1N`, the logD stood at 0.3.

As to `COc1nnc(C(C)C)c(=O)n1N`, the logD was -0.06.

`CSc1nnc(C(C)(C)C)c(=O)n1N`: the logD came out at 1.7.

For `CSc1nnc(C2CCCCO2)c(=O)n1N` (stereo not given), the logD is 0.38.

As for `CSc1nnc(CCC(C)C)c(=O)n1N`, the logD came to 1.85.

In turn, `CCCCCCc1nnc(SC)n(N)c1=O` gave a logD of 2.68.

In the case of `CCSc1nnc(C(C)C)c(=O)n1N`, the logD came to 1.52.

Compound `CSc1nnc(-c2ccccc2)c(=O)n1N` came in with a logD of 1.66. This logD and that of the compound before are within 0.2 log units of each other.

`CCc1nnc(SC)n(N)c1=O` showed a logD of 0.46.

The compound `CSc1nncc(=O)n1N` yielded a logD of 0.38.

The compound `CC(C)c1nnc(SCC(=O)c2ccccc2)n(N)c1=O` gave a logD of 2.07.
